Laboratory results as given in patent publication US11512079B2, “Heterocycle substituted pyridine derivative antifungal agents” (Amplyx Pharmaceuticals, Inc., priority 2017, dated 2022).
Values after ≈ are worked out from the molar mass of the structure shown.

Experiments:
Format in all cases: cell-based
Candida albicans 90028 = assay: In vitro antifungal assay (Example IX), microdilution broth, MIC; conditions: minimum inhibitory concentration (≥50% inhibition), 35° C., 40-48 h, RPMI1640
In short: (§1)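 Yeast inocula (2.5×10^3 cells/mL, RPMI1640) were exposed to twofold compound series reaching 2-0.0019 μg/mL final, per CLSI yeast methodology. Incubation at 35° C. ran 40-48 h for Candida albicans 90028 and 72 h for Cryptococcus neoformans H99. MIC endpoints were confirmed by absorbance at 600 nm.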

[1] = tested on: Cryptococcus neoformans H99; assay: as above; conditions: minimum inhibitory concentration (≥50% inhibition), 35° C., 72 h, RPMI1640
In short: as §1

[2] = tested on: Aspergillus fumigatus MYA3626; assay: In vitro antifungal assay (Example IX), microdilution broth, MEC; conditions: minimum effective concentration (shortening of hyphae), 35° C., 40-48 h, RPMI1640
In short: (§2)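 Read-out is the minimum effective concentration: lowest compound level causing shorter hyphae than in DMSO controls, echinocandin-style. Broth microdilution used conidia or spores harvested from agar plates, cleared of mycelium and clumps, at a final 1-2×10^4 spores/mL in RPMI1640.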

[3] = tested on: Rhizomucor pusillus 46342; assay: as above; conditions: minimum effective concentration (shortening of hyphae), 35° C., 40-48 h, RPMI1640
In short: as §2

Cryptococcus gattii = assay: In vitro antifungal assay (Example IX), microdilution broth, MIC; conditions: minimum inhibitory concentration (≥50% inhibition), 35° C., 72 h (Cryptococcus), RPMI1640
Description: Preparation of Fungal Suspension. C. albicans 90028 and C. neoformans H99 strains were streaked from frozen stocks at −80° C. onto Sabouraud Dextrose Agar (SDA) plates. These were allowed to grow for 24 h (C. albicans) and 48 h (C. neoformans) at 35° C. before using them in the assay. 5-6 individual colonies were picked and diluted into sterile water to obtain a fungal suspension. The cell density of the suspension was determined and the culture diluted with RPMI1640 medium to obtain a fungal suspension of 2.5×10^3 cells/mL. The suspension was used in the MIC measurement as described below.
Preparation of Compound Stocks and Intermediate Dilutions: The compounds were weighed and DMSO was added to prepare a 10 mg/mL stock. The solutions were mixed by vortexing and sonication at 37° C. for 5-10 mins. The resulting solutions were sterile filtered using a PTFE filter, and aliquoted (12 μL or as needed) and stored at −20° C. Intermediate compound dilutions were prepared in sterile polypropylene tubes in 100% DMSO. The compound stock solution was first diluted in DMSO to obtain a concentration of […] to 0.19 μg/mL.
MIC/MEC Measurement: 99 μL 1 of the fungal suspension in RPMI1640 prepared as above was added to each well of a 96-well round bottom assay plate. 1 μL of the intermediate compound dilutions (200-0.19 μg/mL) were added to wells of the plate. This led to a 100-fold dilution of the intermediate dilutions resulting in a final compound concentration of 2-0.0019 μg/mL in the plate. 1 μL of DMSO was added to “No drug” control wells. The solutions were mixed by shaking on a plate shaker for 10 mins and plates incubated at 35° C. for 40-48 h (C. albicans, A. fumigatus, R. pusillus) and 72 h (Cryptococcus). […] This was validated by thorough mixing and reading at 600 nm on a microplate reader. The minimum concentration that led to shortening of hyphae as compared to hyphal growth in DMSO control wells was determined as the minimum effective concentration (MEC) for A. fumigatus and R. pusillus (as read for echinocandins). The use of the MIC and MEC endpoints against yeasts and molds, respectively has been described by Pfaller M A, Duncanson F, Messer S A, Moet G J, Jones R N, Castanheira M. Antimicrob Agents Chemother. 2011. 55(11):5155-8. In vitro activity of a novel broad-spectrum antifungal, E1210, tested against Aspergillus spp. determined by CLSI and EUCAST broth microdilution methods. Results are shown in Table 2, and the letters indicate the following ranges in μg/mL: […]

| SMILES | MIC (Candida albicans 90028) | MIC [1] | MIC (Cryptococcus gattii) | minimal effective concentration [2] | minimal effective concentration [3] |
| --- | --- | --- | --- | --- | --- |
| Nc1ncccc1-c1cc(Cc2ccc(NCc3ccccc3F)nc2)no1 [compound 74, 5-((5-(2-aminopyridin-3-yl)isoxazol-3-yl)methyl)-N-(2-fluorobenzyl)pyridin-2-amine] | 0.01 to 0.1 µg/mL (≈ 0.0266 to 0.266 µM) | 0.01 to 0.1 µg/mL (≈ 0.0266 to 0.266 µM) | 0.01 to 0.1 µg/mL (≈ 0.0266 to 0.266 µM) | 0.1 to 1 µg/mL | > 1 µg/mL |
| Nc1ncccc1-c1cc(Cc2ccc(OCC3CCC3)nc2)no1 [compound 57, 3-(3-((6-(cyclobutylmethoxy)pyridin-3-yl)methyl)isoxazol-5-yl)pyridin-2-amine] | 0.01 to 0.1 µg/mL (≈ 0.0297 to 0.297 µM) | 0.01 to 0.1 µg/mL (≈ 0.0297 to 0.297 µM) | ≤ 0.01 µg/mL | 0.01 to 0.1 µg/mL | 0.1 to 1 µg/mL |
| Nc1ncccc1-c1cc(Cc2ccc(OCc3cnccn3)nc2)no1 [compound 47, 3-(3-((6-(pyrazin-2-ylmethoxy)pyridin-3-yl)methyl)isoxazol-5-yl)pyridin-2-amine] | 0.01 to 0.1 µg/mL (≈ 0.0277 to 0.277 µM) | 0.1 to 1 µg/mL (≈ 0.277 to 2.77 µM) | 0.1 to 1 µg/mL (≈ 0.277 to 2.77 µM) | 0.1 to 1 µg/mL | 0.1 to 1 µg/mL |
| Nc1ncccc1-c1cc(Cc2ccc(Cc3ccnc(F)c3F)cc2)no1 [compound 20, 3-(3-(4-((2,3-difluoropyridin-4-yl)methyl)benzyl)isoxazol-5-yl)pyridin-2-amine] | 0.1 to 1 µg/mL (≈ 0.264 to 2.64 µM) | 0.01 to 0.1 µg/mL (≈ 0.0264 to 0.264 µM) | 0.01 to 0.1 µg/mL (≈ 0.0264 to 0.264 µM) | 0.01 to 0.1 µg/mL | 0.1 to 1 µg/mL |
| Nc1ncccc1-c1cc(Cc2ccc(OCc3cccs3)nc2)no1 [compound 40, 3-(3-((6-(thiophen-2-ylmethoxy)pyridin-3-yl)methyl)isoxazol-5-yl)pyridin-2-amine] | 0.1 to 1 µg/mL (≈ 0.274 to 2.74 µM) | 0.01 to 0.1 µg/mL (≈ 0.0274 to 0.274 µM) | 0.01 to 0.1 µg/mL (≈ 0.0274 to 0.274 µM) | 0.01 to 0.1 µg/mL | 0.1 to 1 µg/mL |
| Nc1ncccc1-c1cc(Cc2ccc(CNc3cccc(F)n3)cc2)no1 [compound 31, N-(4-((5-(2-aminopyridin-3-yl)isoxazol-3-yl)methyl)benzyl)-6-fluoropyridin-2-amine] | 0.01 to 0.1 µg/mL (≈ 0.0266 to 0.266 µM) | 0.1 to 1 µg/mL (≈ 0.266 to 2.66 µM) | 0.1 to 1 µg/mL (≈ 0.266 to 2.66 µM) | 0.01 to 0.1 µg/mL | 0.1 to 1 µg/mL |
| Nc1ncccc1-c1cc(Cc2ccc(OCc3ncccn3)cc2)no1 [compound 28, 3-(3-(4-(pyrimidin-2-ylmethoxy)benzyl)isoxazol-5-yl)pyridin-2-amine] | 0.1 to 1 µg/mL (≈ 0.278 to 2.78 µM) | 0.1 to 1 µg/mL (≈ 0.278 to 2.78 µM) | 0.1 to 1 µg/mL (≈ 0.278 to 2.78 µM) | 0.1 to 1 µg/mL | > 1 µg/mL |
| CC(Oc1ccc(Cc2cc(-c3cccnc3N)on2)cn1)c1ccccn1 (stereo not drawn) [compound 55, 3-(3-((6-(1-(pyridin-2-yl)ethoxy)pyridin-3-yl)methyl)isoxazol-5-yl)pyridin-2-amine] | 0.1 to 1 µg/mL (≈ 0.268 to 2.68 µM) | 0.1 to 1 µg/mL (≈ 0.268 to 2.68 µM) | 0.1 to 1 µg/mL (≈ 0.268 to 2.68 µM) | 0.1 to 1 µg/mL | > 1 µg/mL |
| Nc1ncccc1-c1cc(Cc2ccc(Cc3cccc(F)n3)cc2)no1 [compound 15, 3-(3-(4-((6-fluoropyridin-2-yl)methyl)benzyl)isoxazol-5-yl)pyridin-2-amine] | 0.01 to 0.1 µg/mL (≈ 0.0277 to 0.277 µM) | 0.01 to 0.1 µg/mL (≈ 0.0277 to 0.277 µM) | 0.01 to 0.1 µg/mL (≈ 0.0277 to 0.277 µM) | ≤ 0.01 µg/mL | 0.1 to 1 µg/mL |

Further lines, with some results ahead:

| MIC (Candida albicans 90028) | MIC [1] | MIC (Cryptococcus gattii) | SMILES | minimal effective concentration [2] | minimal effective concentration [3] |
| --- | --- | --- | --- | --- | --- |
| 0.01 to 0.1 µg/mL (≈ 0.0263 to 0.263 µM) | 0.01 to 0.1 µg/mL (≈ 0.0263 to 0.263 µM) | ≤ 0.01 µg/mL | Nc1ncccc1-c1cc(Cc2ccc(Oc3ncc(F)cc3F)cc2)no1 [compound 242, 3-(3-(4-((3,5-difluoropyridin-2-yl)oxy)benzyl)isoxazol-5-yl)pyridin-2-amine] | 0.01 to 0.1 µg/mL | 0.1 to 1 µg/mL |
| 0.01 to 0.1 µg/mL (≈ 0.0256 to 0.256 µM) | 0.01 to 0.1 µg/mL (≈ 0.0256 to 0.256 µM) | 0.1 to 1 µg/mL (≈ 0.256 to 2.56 µM) | Nc1ncccc1-c1cc(Cc2ccc(OCCc3ccc(F)cc3)nc2)no1 [compound 79, 3-(3-((6-(4-fluorophenethoxy)pyridin-3-yl)methyl)isoxazol-5-yl)pyridin-2-amine] | 0.1 to 1 µg/mL | 0.1 to 1 µg/mL |
| > 1 µg/mL | > 1 µg/mL | > 1 µg/mL | N#CCCOc1ccc(Cc2cc(-c3cccnc3N)on2)cn1 [compound 224, 3-((5-((5-(2-aminopyridin-3-yl)isoxazol-3-yl)methyl)pyridin-2-yl)oxy)propanenitrile] | > 1 µg/mL | > 1 µg/mL |
| 0.1 to 1 µg/mL (≈ 0.261 to 2.61 µM) | 0.1 to 1 µg/mL (≈ 0.261 to 2.61 µM) | 0.1 to 1 µg/mL (≈ 0.261 to 2.61 µM) | N#Cc1cccc(COc2ccc(Cc3cc(-c4cccnc4N)on3)cc2)n1 [compound 118, 6-((4-((5-(2-aminopyridin-3-yl)isoxazol-3-yl)methyl)phenoxy)methyl)picolinonitrile] | 0.1 to 1 µg/mL | > 1 µg/mL |
| 0.01 to 0.1 µg/mL (≈ 0.0263 to 0.263 µM) | 0.01 to 0.1 µg/mL (≈ 0.0263 to 0.263 µM) | 0.1 to 1 µg/mL (≈ 0.263 to 2.63 µM) | Nc1ncccc1-c1cc(Cc2ccc(Oc3ccc(F)cc3F)nc2)no1 [compound 75, 3-(3-((6-(2,4-difluorophenoxy)pyridin-3-yl)methyl)isoxazol-5-yl)pyridin-2-amine] | 0.01 to 0.1 µg/mL | 0.1 to 1 µg/mL |
| 0.1 to 1 µg/mL (≈ 0.251 to 2.51 µM) | 0.01 to 0.1 µg/mL (≈ 0.0251 to 0.251 µM) | 0.1 to 1 µg/mL (≈ 0.251 to 2.51 µM) | Nc1ncccc1-c1cc(Cc2ccc(OCc3ccc(Cl)s3)nc2)no1 [compound 221, 3-(3-((6-((5-chlorothiophen-2-yl)methoxy)pyridin-3-yl)methyl)isoxazol-5-yl)pyridin-2-amine] | 0.01 to 0.1 µg/mL | 0.1 to 1 µg/mL |
| 0.1 to 1 µg/mL (≈ 0.277 to 2.77 µM) | 0.1 to 1 µg/mL (≈ 0.277 to 2.77 µM) | 0.1 to 1 µg/mL (≈ 0.277 to 2.77 µM) | Nc1ncccc1-c1cc(Cc2ccc(CCC3CCCCC3)cc2)no1 [compound 100, 3-(3-(4-(2-cyclohexylethyl)benzyl)isoxazol-5-yl)pyridin-2-amine] | 0.1 to 1 µg/mL | > 1 µg/mL |
| 0.01 to 0.1 µg/mL (≈ 0.0279 to 0.279 µM) | 0.1 to 1 µg/mL (≈ 0.279 to 2.79 µM) | 0.01 to 0.1 µg/mL (≈ 0.0279 to 0.279 µM) | Nc1ncccc1-c1cc(Cc2ccc(COc3cccnc3)cc2)no1 [compound 105, 3-(3-(4-((pyridin-3-yloxy)methyl)benzyl)isoxazol-5-yl)pyridin-2-amine] | 0.1 to 1 µg/mL | > 1 µg/mL |
| 0.1 to 1 µg/mL (≈ 0.237 to 2.37 µM) | 0.1 to 1 µg/mL (≈ 0.237 to 2.37 µM) | > 1 µg/mL | COc1c(F)cc(F)cc1NCc1ccc(Cc2cc(-c3cccnc3N)on2)cc1 [compound 198, 3-(3-(4-(((3,5-difluoro-2-methoxyphenyl)amino)methyl)benzyl)isoxazol-5-yl)pyridin-2-amine] | > 1 µg/mL | 0.1 to 1 µg/mL |
